Data on ten compounds can be found in patent publication US6403826B1, “Corrosion-inhibiting coating composition for metals” (Ciba Specialty Chemicals Corporation, priority 1996, dated 2002).

Experiment [1] can be described thus: Salt spray test DIN 50 021 SS, 168 hours, of acrylic dispersion coating (Maincote HG-54) with corrosion inhibitor; corrosion protection factor CPF. The note with it: salt spray 168 hours, coat thickness 50 to 55 μm; for CPF film / CPF metal: maximum 6 points, greater = better; for CPF: sum of film and metal, maximum 12 points. On the procedure:
(§1) In order to prepare the coating formulation (acrylic dispersion based on Maincote HG-54), components 1 to 8 (formulation without amine salt) and components 1 to 9 (formulation comprising an amine salt) are employed in the sequence stated (see Table 1).
(§2) Components 1 to 8 or 1 to 9 are dispersed using a high-speed stirrer at 3000 revolutions/minute to a degree of ground fineness or ground particulate nature of <15 μm. The outcome of dispersing the pigment paste thus obtained is assessed by determining the grindometer value (ISO 1524).The amount of the novel salts employed is based on the overall solids content of the formulation without salt (overall solids content 47%). Accordingly, an addition of, say, 1.0% of amine salt to 100 g of dispersion denotes, for example, an amount of 0.47 g. To complete the coating formulation, components 10 to 16 of Table 1 are added at a reduced stirring speed (1000 revolutions/minute) in the stated sequence. Subsequently, the pH of the formulation is checked and, if appropriate, is adjusted prior to application to a value of from 8 to 8.5 using ammonia solution (25% strength).
(§3) The coating formulations are applied to steel panels (19×10.5 cm) of the Bonder type (cold-rolled degreased steel; manufactured by Chemetall, Frankfurt am Main/Germany) in a coat thickness which after drying amounts to 50-55 μm. Drying conditions: 10 days at room temperature.
(§4) Prior to the beginning of weathering, the “coating films” undergo defined damage in the form of a parallel cut (i.e. parallel to the longest panel edge) using a Bonder cross-cut instrument (Mod. 205; manufactured and sold by Lau, 5870 Hemer/Germany). The panel edges are protected by applying an edge protector (Icosit® 255; manufactured by Inertol AG, Winterthur/Switzerland).
(§5) The samples are subsequently subjected to accelerated weathering in a salt spray test in accordance with DIN 50 021 SS for 168 hours (Table 2) or to a humidity test in accordance with ASTM D 4585-87 for 330 hours (Table 3). The assessment of the results is based on the relevant DIN standards in accordance with an evaluation key, by the indication of a corrosion protection value CPF (Corrosion Protection Factor). The CPF is an additive term composed of an assessment of the coating (film) and an assessment of visible underfilm corrosion and appearance of the metal surface, and has a maximum of 12 points. The individual maximum values are 6 points each. The greater the CPF, the better the protection against corrosion.

Experiment [2] is described as follows: Subfilm migration in the wet state (cathodic delamination) along the artificial damage, DIN 53 167, after the salt spray test. The following applies: after salt spray 168 hours, coat thickness 50 to 55 μm, lesser = more effective.
Excerpt: as §3, §4
(§6) As additional assessment criteria, the “subfilm migration in the wet state” (cathodic delamination) along the artificial damage side is determined, after the end of the salt spray test, in accordance with DIN 53 167. […] After the end of the humidity test, the wet adhesion of the coating formulation is determined in accordance with DIN 53 151 by making a crosshatch cut followed by the tape tearoff test. According to DIN 53 151 (scale from Gt 0 to Gt 5) a crosshatch value of Gt 0 corresponds to completely intact adhesion of the coating film, whereas Gt 5 corresponds to inadequate adhesion.

Experiment [3] is described as follows: Humidity test ASTM D 4585-87, 330 hours, of acrylic dispersion coating (Maincote HG-54) with corrosion inhibitor; corrosion protection factor CPF. The following applies: humidity test 330 hours, coat thickness 45 to 50 μm; for CPF film / CPF metal: maximum 6 points, greater = better; for CPF: sum of film and metal, maximum 12 points. On the procedure:
as §1, §2
[…] Drying conditions: 10 days at room temperature.
as §4, §5

A short description of experiment [4]: Wet adhesion of the coating formulation, DIN 53 151 crosshatch cut and tape tearoff test, after the humidity test. The note with it: after humidity test 330 hours, scale Gt 0 (completely intact adhesion) to Gt 5 (inadequate adhesion). On the procedure:
as §3, §6

The mark [5] stands for this setting: 1% inhibitor on overall solids content.
[6] abbreviates: 2% inhibitor on overall solids content.

As to `CCCCCCN(CCCCCC)CP(=O)(O)O.CCN1CCOCC1.CCN1CCOCC1` [Example 2, Dihexylaminomethylenephosphonic Acid, Salt with Two Equivalents of N-ethylmorpholine], the CPF film in experiment [1] (setting [5]) stood at 4.2; in experiment [3] (setting [5]), 4.0. The CPF metal is recorded as 5.2 in experiment [1] (setting [5]) and 4.0 in experiment [3] (setting [5]). In addition, the CPF in experiment [1] (1% inhibitor) is given as 9.4; in experiment [3] (1% inhibitor), 8.0. Besides, in experiment [2] (1% inhibitor), the “Cathodic delamination (mm total)” value is reported as 14 mm. In experiment [4] (1% inhibitor), the “Wet adhesion (Gt value)” value is reported as 0 Gt.

For the compound `CCCCCCCCCCN(CP(=O)(O)O)CP(=O)(O)O.OCCN(CCO)CCO.OCCN(CCO)CCO` [Example 17, n-Decylaminobismethylenephosphonic Acid, Salt with Two Equivalents of Triethanolamine], in experiment [1] (setting [5]), the CPF film is given as 5.4 and the CPF metal was 5.5. The CPF in experiment [1] (1% inhibitor) was determined as 10.9. The “Cathodic delamination (mm total)” value in experiment [2] (1% inhibitor) came out at 16 mm.

With `CCCCCCCCN(CCCCCCCC)CP(=O)(O)O.CCN1CCOCC1.CCN1CCOCC1` [Example 3, Dioctylaminomethylenephosphonic Acid, Salt with Two Equivalents of N-ethylmorpholine], in experiment [1] (setting [5]), the CPF film was 4.0 and the CPF metal turned out to be 4.0. Moreover, the CPF in experiment [1] (1% inhibitor) came out at 8.0. The “Cathodic delamination (mm total)” value in experiment [2] (1% inhibitor) is 16 mm.

For the compound `CCCCC(CC)CN(CP(=O)(O)O)CP(=O)(O)O.CCN1CCOCC1.CCN1CCOCC1` (stereo not drawn) [Example 4, 2-Ethylhexylaminobismethylenephosphonic Acid, Salt with Two Equivalents N-ethylmorpholine], the results for the CPF film in experiment [1] (setting [5]), in experiment [3] (setting [5]) and in experiment [3] (setting [6]) were 5.0, 4.0 and 5.0, respectively. The results for the CPF metal in experiment [1] (setting [5]), in experiment [3] (setting [5]) and in experiment [3] (setting [6]) were 5.0, 2.6 and 4.8, respectively. For the same compound, the CPF was determined as 10.0 in experiment [1] (1% inhibitor), 6.6 in experiment [3] (1% inhibitor) and 9.8 in experiment [3] (2% inhibitor). Besides, the “Cathodic delamination (mm total)” value in experiment [2] (1% inhibitor) is recorded as 22 mm. Also, the “Wet adhesion (Gt value)” value in experiment [4] (1% inhibitor) and in experiment [4] (2% inhibitor) was 0 Gt in each case.

As to `CCCCCCCCCCCCCCN(CP(=O)(O)O)CP(=O)(O)O.CCN1CCOCC1.CCN1CCOCC1` [Example 6, n-Tetradecylaminobismethylenephosphonic Acid, Salt with Two Equivalents of N-ethylmorpholine], the CPF film in experiment [1] (setting [5]) was found to be 5.4; in experiment [3] (setting [5]), 4.6; in experiment [3] (setting [6]), 5.2. The CPF metal stood at 5.0 in experiment [1] (setting [5]), 5.0 in experiment [3] (setting [5]) and 4.5 in experiment [3] (setting [6]). Besides, the CPF in experiment [1] (1% inhibitor) was 10.2; in experiment [3] (1% inhibitor), 9.6; in experiment [3] (2% inhibitor), 9.7. Further, the “Cathodic delamination (mm total)” value in experiment [2] (1% inhibitor) was 18 mm. Also, the “Wet adhesion (Gt value)” value in experiment [4] (1% inhibitor) and in experiment [4] (2% inhibitor) was 0 Gt in each case.

As for `CCCCCCCCCCCCN(CP(=O)(O)O)CP(=O)(O)O.OCCN(CCO)CCO.OCCN(CCO)CCO` [Example 16, n-Dodecylaminobismethylenephosphonic Acid, Salt with Two Equivalents of Triethanolamine], the CPF film in experiment [1] (setting [5]) and in experiment [3] (setting [6]) was 4.8 each time. Also, the values for the CPF metal in experiment [1] (setting [5]) and in experiment [3] (setting [6]) were 4.4 and 3.6, respectively. The CPF in experiment [1] (1% inhibitor) came to 9.2; in experiment [3] (2% inhibitor), 8.4. Further, the “Cathodic delamination (mm total)” value in experiment [2] (1% inhibitor) stood at 16 mm. Also, in experiment [4] (2% inhibitor), the “Wet adhesion (Gt value)” value stood at 0 Gt.

Take `CCCCCCCCCCN(CP(=O)(O)O)CP(=O)(O)O.CCN1CCOCC1.CCN1CCOCC1` [Example 8, n-Decylaminobismethylenephosphonic Acid, Salt with Two Equivalents of N-ethylmorpholine]: the CPF film in experiment [1] (setting [5]), in experiment [1] (setting [6]) and in experiment [3] (setting [5]) was 5.2 each time. The CPF metal in experiment [1] (setting [5]) is 5.4; in experiment [1] (setting [6]) it was 5.2; in experiment [3] (setting [5]) it was 4.7. Also, the figures for the CPF in experiment [1] (1% inhibitor), in experiment [1] (2% inhibitor) and in experiment [3] (1% inhibitor) were 10.6, 10.4 and 9.9, respectively. Further, the results for the “Cathodic delamination (mm total)” value in experiment [2] (1% inhibitor) and in experiment [2] (2% inhibitor) were 12 mm and 10 mm, respectively. In experiment [4] (1% inhibitor), the “Wet adhesion (Gt value)” value is listed as 0-1 Gt.

Turning to `CCCCCCCCCCCCCCCCN(CP(=O)(O)O)CP(=O)(O)O.CCN1CCOCC1.CCN1CCOCC1` [Example 5, n-Hexadecylaminobismethylenephosphonic Acid, Salt with Two Equivalents of N-ethylmorpholine], the CPF film in experiment [1] (setting [5]) is given as 5.2; in experiment [3] (setting [5]), 4.2. The CPF metal in experiment [1] (setting [5]) and in experiment [3] (setting [5]) was 5.0 each time. The figures for the CPF in experiment [1] (1% inhibitor) and in experiment [3] (1% inhibitor) were 10.2 and 9.2, respectively. In experiment [2] (1% inhibitor), the “Cathodic delamination (mm total)” value was 26 mm. Moreover, the “Wet adhesion (Gt value)” value in experiment [4] (1% inhibitor) is given as 0 Gt.

Consider `CCCCCCCCCCCCCCCCCCN(CP(=O)(O)O)CP(=O)(O)O.CCN1CCOCC1.CCN1CCOCC1` [Example 1, n-Octadecylaminobismethylenephosphonic Acid, Salt with Two Equivalents of N-ethylmorpholine], for which the CPF film is on record as 6.0 in experiment [1] (setting [5]), 6.0 in experiment [1] (setting [6]), 4.0 in experiment [3] (setting [5]) and 5.0 in experiment [3] (setting [6]). The CPF metal is reported as 5.0 in experiment [1] (setting [5]), 5.2 in experiment [1] (setting [6]), 4.0 in experiment [3] (setting [5]) and 4.0 in experiment [3] (setting [6]). The CPF in experiment [1] (1% inhibitor) came to 11.0; in experiment [1] (2% inhibitor) it was 11.2; in experiment [3] (1% inhibitor), 8.0; in experiment [3] (2% inhibitor), 9.0. In addition, the “Cathodic delamination (mm total)” value worked out at 28 mm in experiment [2] (1% inhibitor) and 30 mm in experiment [2] (2% inhibitor). In addition, the “Wet adhesion (Gt value)” value in experiment [4] (1% inhibitor) and in experiment [4] (2% inhibitor) was 0 Gt throughout.

For `CCCCCCCCN(CP(=O)(O)O)CP(=O)(O)O.CCN1CCOCC1.CCN1CCOCC1` [Example 9, n-Octylaminobismethylenephosphonic Acid, Salt with Two Equivalents of N-ethylmorpholine], the CPF film in experiment [1] (setting [5]) is listed as 5.6; in experiment [3] (setting [5]), 4.4; in experiment [3] (setting [6]), 4.8. The values for the CPF metal in experiment [1] (setting [5]), in experiment [3] (setting [5]) and in experiment [3] (setting [6]) were 5.4, 4.0 and 5.4, respectively. Further, the values for the CPF in experiment [1] (1% inhibitor), in experiment [3] (1% inhibitor) and in experiment [3] (2% inhibitor) were 11.0, 8.4 and 10.2, respectively. Further, the “Cathodic delamination (mm total)” value in experiment [2] (1% inhibitor) came out at 12 mm. Besides, the “Wet adhesion (Gt value)” value in experiment [4] (1% inhibitor) and in experiment [4] (2% inhibitor) was 0 Gt throughout.
